Like-named read-outs stand apart in the source and are kept apart here. Non-standard residues stand in square brackets, D forms with d. Residues, ends and D or L forms follow the SMILES beside them. Phe(4-tBu) = CC(C)(C)c1ccc(C[C@H](N)C(=O)O)cc1; NMeW = CN[C@@H](Cc1c[nH]c2ccccc12)C(=O)O; Cya = N[C@@H](CS(=O)(=O)O)C(=O)O; NMeS = CN[C@@H](CO)C(=O)O
Biological target: Sushi domains (SD1/2) protein
Assay: Fluorescence polarization (FP) competition assay with AJAP-1probe, calculated Ki
Type: binding
Summary of the method: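 Competition against 25 nM TAMRA-labelled peptide probe binding SD1/2, in PBS pH 7.4 with 1% BSA at rt, read at 530/580 nm. IC50 from sigmoidal dose-response fits, at least triplicate; Ki calculated from IC50 using probe Kd from saturation binding.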

[1] = Table 16, ncAAs incorporated peptides, read-out: Ki (nM) mean ± SEM
[2] = purified peptides, read-out: Ki
[3] = Table 4, truncation and elongation scans of APP epitope, read-out: Ki (nM) mean ± SEM
[4] = Table 11, deep mutational scanning validation variants of AJAP-1WT, read-out: Ki (nM) mean ± SEM
[5] = Table 1, affinity maturation, mean ± SEM, n ≥ 3, read-out: Ki
[6] = Table 13, peptides for affinity maturation, read-out: Ki (nM) mean ± SEM

Compound: COc1ccc(C[C@H](NC(=O)[C@H](Cc2c[nH]c3ccccc23)NC(=O)[C@H](Cc2c[nH]c3ccccc23)NC(=O)[C@@H](NC(=O)[C@H](CC(=O)O)NC(=O)[C@H](CO)NC(=O)[C@H](CC(=O)O)NC(=O)[C@H](CC(=O)O)NC(=O)[C@H](CCC(=O)O)NC(C)=O)C(C)C)C(=O)NCC(=O)N[C@@H](C)C(=O)N[C@@H](CC(=O)O)C(=O)N[C@H](C(=O)N[C@@H](CC(=O)O)C(N)=O)[C@@H](C)O)cc1 (Ac-EDDSDVWWY(Me)GADTD-NH2)
- Ki [1]: 109 ± 4 nM

Compound: CC[C@H](C)[C@H](NC(=O)[C@H](Cc1ccccc1)NC(=O)[C@H](CCC(=O)O)NC(=O)[C@@H](NC(=O)[C@H](CCC(=O)O)NC(C)=O)[C@@H](C)O)C(=O)N[C@@H](CS(=O)(=O)O)C(=O)N[C@@H](Cc1c[nH]c2ccccc12)C(=O)NCC(=O)N1CCC[C@H]1C(=O)N[C@H](C(=O)NCC(=O)N[C@@H](CC(=O)O)C(=O)N[C@@H](CCC(=O)O)C(=O)N[C@@H](CC(=O)O)C(N)=O)[C@@H](C)O [ETEFI(Cya)WGPTGDED, Ac-ETEFI(Cya)WGPTGDED-NH2] (Ac-ETEFI[Cya]WGPTGDED-NH2)
- Ki [1]: 12 ± 0.3 nM
- Ki [2]: 11.8 nM

Compound: CC(=O)N[C@@H](C)C(=O)N[C@@H](CCC(=O)O)C(=O)N[C@@H](CCC(=O)O)C(=O)N[C@@H](CC(=O)O)C(=O)N[C@@H](CC(=O)O)C(=O)N[C@@H](CO)C(=O)N[C@@H](CC(=O)O)C(=O)N[C@H](C(=O)N[C@@H](Cc1c[nH]c2ccccc12)C(=O)N[C@@H](Cc1c[nH]c2ccccc12)C(=O)NCC(=O)NCC(=O)N[C@@H](C)C(=O)N[C@@H](CC(=O)O)C(=O)N[C@H](C(=O)N[C@@H](CC(=O)O)C(=O)N[C@@H](Cc1ccc(O)cc1)C(=O)N[C@@H](C)C(=O)N[C@@H](CC(=O)O)C(N)=O)[C@@H](C)O)C(C)C
- Ki [3]: 237 ± 8 nM

Compound: CC[C@H](C)[C@H](NC(=O)[C@H](Cc1ccccc1)NC(=O)[C@H](CCC(=O)O)NC(=O)[C@@H](NC(=O)[C@H](CCC(=O)O)NC(C)=O)[C@@H](C)O)C(=O)N[C@H](C(=O)N[C@@H](Cc1c[nH]c2ccccc12)C(=O)NCC(=O)N1CCC[C@H]1C(=O)N[C@H](C(=O)NCC(=O)N[C@@H](CC(=O)O)C(=O)N[C@@H](CCC(=O)O)C(=O)N[C@@H](CC(=O)O)C(N)=O)[C@@H](C)O)C(C)C [ETEFIVWGPTGDED] (Ac-ETEFIVWGPTGDED-NH2)
- Ki [4]: 30 ± 1 nM

Compound: CC[C@H](C)[C@H](NC(=O)[C@H](Cc1c[nH]c2ccccc12)NC(=O)[C@H](CO)NC(=O)[C@H](CC(=O)O)NC(=O)[C@H](CC(=O)O)NC(=O)[C@H](CCC(=O)O)NC(C)=O)C(=O)N[C@@H](Cc1c[nH]c2ccccc12)C(=O)N[C@@H](Cc1c[nH]c2ccccc12)C(=O)N[C@@H](Cc1ccc(O)cc1)C(=O)NCC(=O)N[C@@H](C)C(=O)N[C@@H](CC(=O)O)C(=O)N[C@H](C(=O)N[C@@H](CC(=O)O)C(N)=O)[C@@H](C)O [Peptide 28] (Ac-EDDSWIWWYGADTD-NH2)
- Ki [5]: 18 ± 1 nM
- Ki [6]: 18 ± 1 nM

Compound: CC(=O)N[C@@H](CCC(=O)O)C(=O)N[C@@H](CC(=O)O)C(=O)N[C@@H](CC(=O)O)C(=O)N(C)[C@@H](CO)C(=O)N[C@@H](CC(=O)O)C(=O)N[C@H](C(=O)N[C@@H](Cc1c[nH]c2ccccc12)C(=O)N[C@@H](Cc1c[nH]c2ccccc12)C(=O)NCC(=O)NCC(=O)N[C@@H](C)C(=O)N[C@@H](CC(=O)O)C(=O)N[C@H](C(=O)N[C@@H](CC(=O)O)C(N)=O)[C@@H](C)O)C(C)C (Ac-EDD[NMeS]DVWWGGADTD-NH2)
- Ki (Table 7, Ala-, D-amino acids and N-methylation scans of APPWT, read-out: Ki (nM) mean ± SEM): 1670 ± 32 nM

Compound: CC[C@H](C)[C@H](NC(=O)[C@H](Cc1ccccc1)NC(=O)[C@H](CCC(=O)O)NC(=O)[C@@H](NC(=O)[C@H](CCC(=O)O)NC(C)=O)[C@@H](C)CC)C(=O)N[C@@H](C)C(=O)N[C@@H](Cc1c[nH]c2ccccc12)C(=O)NCC(=O)N1CCC[C@H]1C(=O)N[C@H](C(=O)NCC(=O)N[C@@H](CC(=O)O)C(=O)N[C@@H](CCC(=O)O)C(=O)N[C@@H](CC(=O)O)C(N)=O)[C@@H](C)O [EIEFIAWGPTGDED]
- Ki [4]: 22 ± 1 nM

Compound: COc1ccc(C[C@H](NC(=O)[C@H](CO)NC(=O)[C@H](CC(=O)O)NC(=O)[C@H](CC(=O)O)NC(=O)[C@H](CCC(=O)O)NC(C)=O)C(=O)N[C@H](C(=O)N[C@@H](Cc2c[nH]c3ccccc23)C(=O)N[C@@H](Cc2c[nH]c3ccccc23)C(=O)NCC(=O)NCC(=O)N[C@@H](C)C(=O)N[C@@H](CC(=O)O)C(=O)N[C@H](C(=O)N[C@@H](CC(=O)O)C(N)=O)[C@@H](C)O)C(C)C)cc1 (Ac-EDDSY(Me)VWWGGADTD-NH2)
- Ki [1]: 101 ± 4 nM

Compound: CC(=O)N[C@@H](CCC(=O)O)C(=O)N[C@@H](CCC(=O)O)C(=O)N[C@@H](CC(=O)O)C(=O)N[C@@H](CC(=O)O)C(=O)N[C@@H](CO)C(=O)N[C@@H](CC(=O)O)C(=O)N[C@H](C(=O)N[C@@H](Cc1c[nH]c2ccccc12)C(=O)N[C@@H](Cc1c[nH]c2ccccc12)C(=O)NCC(=O)NCC(=O)N[C@@H](C)C(=O)N[C@@H](CC(=O)O)C(=O)N[C@H](C(=O)N[C@@H](CC(=O)O)C(=O)N[C@@H](Cc1ccc(O)cc1)C(=O)N[C@@H](C)C(=O)N[C@@H](CC(=O)O)C(=O)NCC(N)=O)[C@@H](C)O)C(C)C (Ac-EEDDSDVWWGGADTDYADG-NH2)
- Ki [3]: 343 ± 17 nM

Compound: CC(=O)N[C@@H](CCC(=O)O)C(=O)N[C@@H](CC(=O)O)C(=O)N[C@@H](CC(=O)O)C(=O)N[C@@H](CO)C(=O)N[C@@H](CC(=O)O)C(=O)N[C@H](C(=O)N[C@@H](Cc1c[nH]c2ccccc12)C(=O)N[C@@H](C)C(=O)NCC(=O)NCC(=O)N[C@@H](C)C(=O)N[C@@H](CC(=O)O)C(=O)N[C@H](C(=O)N[C@@H](CC(=O)O)C(N)=O)[C@@H](C)O)C(C)C (Ac-EDDSDVWAGGADTD-NH2)
- Ki (Table 7, cells printed in μM, read-out: Ki (nM) mean ± SEM): > 62500 nM

Compound: CC[C@H](C)[C@H](NC(=O)[C@H](Cc1ccc(OCc2ccccc2)cc1)NC(=O)[C@H](CC(=O)O)NC(=O)[C@H](CC(=O)O)NC(=O)[C@H](CC(=O)O)NC(=O)[C@H](CCC(=O)O)NC(C)=O)C(=O)N[C@@H](CC(=O)O)C(=O)N[C@@H](Cc1c[nH]c2ccccc12)C(=O)N[C@@H](Cc1ccc(O)cc1)C(=O)N[C@@H](CC(=O)O)C(=O)N[C@@H](CO)C(=O)N[C@@H](CC(=O)O)C(=O)N[C@@H](CC(=O)O)C(=O)N[C@@H](CC(=O)O)C(N)=O [Peptide 33]
- Ki [5]: 9.3 ± 0.2 nM
- Ki [1]: 9.3 ± 0.2 nM

Compound: CC(=O)N[C@@H](CCC(=O)O)C(=O)N[C@@H](CC(=O)O)C(=O)N[C@@H](CC(=O)O)C(=O)N[C@@H](CO)C(=O)N[C@@H](CC(=O)O)C(=O)N[C@H](C(=O)N[C@@H](Cc1c[nH]c2ccccc12)C(=O)N[C@@H](Cc1c[nH]c2ccccc12)C(=O)NCC(=O)NCC(=O)N[C@@H](C)C(=O)N[C@@H](CC(=O)O)C(=O)N[C@H](C(=O)N[C@@H](CC(=O)O)C(=O)N[C@@H](Cc1ccc(O)cc1)C(N)=O)[C@@H](C)O)C(C)C [Peptide 13] (Ac-EDDSDVWWGGADTDY-NH2)
- Ki [2]: 581 nM

Compound: CC[C@H](C)[C@H](NC(=O)[C@H](Cc1ccccc1)NC(=O)[C@H](Cc1c[nH]c2ccccc12)NC(=O)[C@@H]1CCCN1C(C)=O)C(=O)N[C@H](C(=O)N[C@@H](Cc1c[nH]c2ccccc12)C(=O)NCC(=O)N1CCC[C@H]1C(=O)N[C@H](C(=O)N[C@H](C(=O)N[C@@H](CO)C(=O)N[C@@H](CCCNC(=N)N)C(=O)N[C@@H](CCC(=O)O)C(=O)N[C@@H](CC(=O)O)C(N)=O)C(C)C)[C@@H](C)O)C(C)C [PWFIVWGPTVSRED] (Ac-PWFIVWGPTVSRED-NH2)
- Ki (Table 12, deep mutational scanning validation variants of PIANPWT, read-out: Ki (nM) mean ± SEM): 461 ± 10 nM

Compound: CC(=O)N[C@@H](CCC(=O)O)C(=O)N[C@@H](CC(=O)O)C(=O)N[C@@H](CC(=O)O)C(=O)N[C@@H](CO)C(=O)N[C@@H](CC(=O)O)C(=O)N[C@H](C(=O)N[C@@H](Cc1c[nH]c2ccccc12)C(=O)N[C@@H](Cc1c[nH]c2ccccc12)C(=O)NCC(=O)NCC(=O)N[C@@H](C)C(=O)N[C@@H](CC(=O)O)C(=O)N[C@@H](CCC(=O)O)C(=O)N[C@@H](CC(=O)O)C(N)=O)C(C)C [EDDSDVWWGGADED] (Ac-EDDSDVWWGGADED-NH2)
- Ki (Table 10, deep mutational scanning validation variants of APPWT, read-out: Ki (nM) mean ± SEM): 337 ± 10 nM

Compound: CC[C@H](C)[C@H](NC(=O)[C@H](Cc1ccccc1)NC(=O)[C@H](CCC(=O)O)NC(=O)[C@@H](NC(=O)[C@H](CCC(=O)O)NC(C)=O)[C@@H](C)O)C(=O)N[C@@H](C)C(=O)N(C)[C@@H](Cc1c[nH]c2ccccc12)C(=O)NCC(=O)N1CCC[C@H]1C(=O)N[C@H](C(=O)NCC(=O)N[C@@H](CC(=O)O)C(=O)N[C@@H](CCC(=O)O)C(=O)N[C@@H](CC(=O)O)C(N)=O)[C@@H](C)O [ETEFIA(N-Me-W)GPTGDED] (Ac-ETEFIA[NMeW]GPTGDED-NH2)
- Ki (Table 8, Ala-, D-amino acids and N-methylation scans of AJAP-1WT, read-out: Ki (nM) mean ± SEM): 46 ± 2 nM

Compound: EDDS(Buphe)VWWGGADTD (Ac-EDDS[Phe(4-tBu)]VWWGGADTD-NH2)
- Ki [1]: 269 ± 3 nM

Compound: CC(=O)N[C@@H](CC(=O)O)C(=O)N[C@@H](CO)C(=O)N[C@@H](C)C(=O)N[C@@H](CC(=O)O)C(=O)N[C@@H](C)C(=O)N[C@@H](CCC(=O)O)C(=O)N[C@@H](CCC(=O)O)C(=O)N[C@@H](CC(=O)O)C(=O)N[C@@H](CC(=O)O)C(=O)N[C@@H](CO)C(=O)N[C@@H](CC(=O)O)C(=O)N[C@H](C(=O)N[C@@H](Cc1c[nH]c2ccccc12)C(=O)N[C@@H](Cc1c[nH]c2ccccc12)C(=O)NCC(N)=O)C(C)C [Peptide 11] (Ac-DSADAEEDDSDVWWG-NH2)
- Ki (AJAP-1probe, read-out: Ki): 5000 nM
- Ki (Table 3, SPOT hit validation and previously reported peptides, read-out: Ki (nM) mean ± SEM): 5030 ± 171 nM

Compound: CC[C@H](C)[C@H](NC(=O)[C@H](Cc1ccc(O)cc1)NC(=O)[C@H](CC(=O)O)NC(=O)[C@H](CC(=O)O)NC(=O)[C@H](CCC(=O)O)NC(C)=O)C(=O)N[C@@H](CC(=O)O)C(=O)N[C@@H](Cc1c[nH]c2ccccc12)C(=O)N[C@@H](Cc1ccc(O)cc1)C(=O)N[C@@H](CC(=O)O)C(=O)N[C@@H](CO)C(=O)N[C@@H](CC(=O)O)C(=O)N[C@@H](CC(=O)O)C(=O)N[C@@H](CC(=O)O)C(N)=O [Peptide 18] (Ac-EDDYIDWYDSDDD-NH2)
- Ki [5]: 4.6 ± 0.3 nM
- Ki [6]: 4.6 ± 0.3 nM

— patent publication US20260193293A1, “PEPTIDES CAPABLE OF INHIBITING PROTEIN-PROTEIN INTERACTIONS AT GABAB1A SUBUNIT AND USES THEREOF” (UNIVERSITY OF COPENHAGEN, priority 2022, published 2026)
